Experimental data reported in patent US20210246505A1, “COMPOSITIONS & METHODS FOR MONITORING DNA REPAIR” (MEMORIAL SLOAN KETTERING CANCER CENTER, priority 2018, published 2021).

Columns and labels:
Format in all cases: cell-based, human
HEK293T cells = test: DSBR-seq of a Cas9 break at the AAVS1 locus, HEK293T cells
Excerpt: In this Example, transfection of the pX330 plasmid, containing the Cas9 and guide RNA (gRNA) expression cassettes to the AAVS1 safe locus, is used. Genomic DNA (gDNA) is collected 3 days post-transfection. To asses—DNA repair by HR, a donor template containing three substitutions around the protospacer adjacent motif (PAM) which limits cut-recut cycles is transfected also. A 500 bp amplicon surrounding the break is used for rapid measurement of DSBR errors via the widely used T7 endonuclease I assay. A 201 bp amplicon surrounding the cut site, but outside of the HR template is amplified, purified via E-gel electrophoresis system, converted into Illumina sequencing libraries, quantified via qPCR, and then sequenced at 200,000× read depth using paired end 150 bp (PE150) Mi-Seq. Unique, nonsingleton reads (occurring more than once) are aligned to the reference sequence using pairwise alignment (for example using Python). The indels and substitutions are cataloged relative to the break site and microhomology (MH) is determined (for example using an internally developed and validated algorithm, see FIG. 8). The reads are categorized as consequences of NHEJ (≤5 bp deletion) or MMEJ (>5 bp deletion with >2 bp MH). The donor template DNA contains key substitutions—thereby providing a readout of HR. These experiments are also performed in cells that are isogenic knockout controls of key NHEJ, MMEJ and HR components and using pharmacologic controls in which DNA-PKcs, RAD51, and PARP are inhibited […]. By comparing the experimental reads against those obtained from the knockout controls and/or pharmacologic controls, the specific reads dependent on each pathway were discovered. (FIG. 1). Thus, these methods involve empirically-determined deletion profiles, derived from known controls deficient in each pathway, as signatures to clearly separate and quantify DSBR events occurring by HR, NHEJ and MMEJ. The single double strand break allows for direct analysis of pathway choice in a native genomic location with a blunt-ended DSB. Because both cell cycle dependent pathways (MMEJ and […]) are measured in the same experiment, there is an effective built-in control for confounding cell cycle effects on the use of these pathways. The AAVS1 genomic location was chosen due to its characterization as a safe site of integration without any known phenotypic effects. Transfection of the pX330 plasmid, containing the Cas9 and gRNA expression cassettes, is performed by nucleofection or liposome-based techniques. To detect DNA repair by homologous recombination (HR), a donor template is used containing three substitutions, one on the gRNA side of the break and two on the other side of the break, destroying the protospacer adjacent motif (PAM) and thereby limiting cut-recut cycles. A 500 bp amplicon surrounding the break is used for rapid measurement of DSBR errors via the widely used T7 endonuclease I assay. A 201 bp amplicon surrounding the cut site, but outside of the HR template is amplified, purified via E-gel electrophoresis system, converted into Illumina sequencing libraries, quantified via qPCR, and then sequenced at 200,000× read depth. Paired end 150 bp (PE150) reads are obtained, affording a central 100 bp region of high sequence fidelity adjacent to the cut site. The PE150 reads are merged using PEAR and then condensed into a set of unique reads. Unique reads that only occur once are discarded, as they are likely low-quality reads due to sequencing error. These unique, nonsingleton reads are aligned to the reference sequence using pairwise alignment through Python. The indels and substitutions are cataloged relative to the breaksite. […] The profile of deletion sizes and extent of microhomology differs between break sites, likely owing to site dependent availability of microhomology. We utilized the DNA-PKcs inhibitor NU7441 to measure NHEJ inhibition. […]

HAP1 cells = test: DSBR-seq of a Cas9 break at the AAVS1 locus, HAP1 cells
Excerpt: (§1) In this Example, transfection of the pX330 plasmid, containing the Cas9 and guide RNA (gRNA) expression cassettes to the AAVS1 safe locus, is used. Genomic DNA (gDNA) is collected 3 days post-transfection. To asses—DNA repair by HR, a donor template containing three substitutions around the protospacer adjacent motif (PAM) which limits cut-recut cycles is transfected also. A 500 bp amplicon surrounding the break is used for rapid measurement of DSBR errors via the widely used T7 endonuclease I assay. A 201 bp amplicon surrounding the cut site, but outside of the HR template is amplified, purified via E-gel electrophoresis system, converted into Illumina sequencing libraries, quantified via qPCR, and then sequenced at 200,000× read depth using paired end 150 bp (PE150) Mi-Seq. Unique, nonsingleton reads (occurring more than once) are aligned to the reference sequence using pairwise alignment (for example using Python). The indels and substitutions are cataloged relative to the break site and microhomology (MH) is determined (for example using an internally developed and validated algorithm, see FIG. 8). The reads are categorized as consequences of NHEJ (≤5 bp deletion) or MMEJ (>5 bp deletion with >2 bp MH). The donor template DNA contains key substitutions—thereby providing a readout of HR. […] The PE150 reads are merged using PEAR and then condensed into a set of unique reads. […]

[1] = system: HCC1937 BRCA1 deficient cell line; test: DSBR-seq of a Cas9 break at the AAVS1 locus, HCC1937 BRCA1 deficient cells; conditions: with or without inhibitor
Excerpt: as §1

Structure (SMILES) | 12 base pair deletion with 5 bp of microhomology read (HEK293T cells; 293T cells) | specific 1 bp deletion read (HEK293T cells; 293T cells) | HR usage (HEK293T cells; FIG. 1I) | MMEJ usage (HEK293T cells; FIG. 1I) | NHEJ usage (HEK293T cells; FIG. 1I) | decrease of the amplitude of the deletion peak (HEK293T cells; HEK293T cells, DSB at position 120 of amplicon) | frequency of HR (donor substitution) peaks (HEK293T cells; HEK293T cells, donor template) | width of the deletion peak (HEK293T cells; HEK293T cells, reflects use of MMEJ) | 12 base pair deletion with 5 bp of microhomology read (HAP1 cells; HAP1 cells) | HR observed [1] | increase of the frequency of introduced errors overall (HAP1 cells; G1 arrest by the drug) [fold]
O=c1cc(N2CCOCC2)oc2c(-c3cccc4c3sc3ccccc34)cccc12 [NU7441] | enhanced | suppressed | increases | increases | suppresses | more than 90% | increased in frequency | increases | enhanced | no HR is observed | –
CC(=O)c1c(C)c2cnc(Nc3ccc(N4CCNCC4)cn3)nc2n(C2CCCC2)c1=O [palbociclib] | – | – | – | – | – | – | – | – | – | – | ~4
